Experimental findings from patent US9493472B2, “Substituted benzoxazoles” (BAYER PHARMA AKTIENGESELLSCHAFT, priority 2013, dated 2016) are described below.

For assay [1], the target named is T1, thrombin (Homo sapiens (Human), UniProt P00734). Nature of the assay: Measurement of the thrombin inhibition in buffer. In kind it is biochemical. As to conditions: human thrombin 0.06 nmol/l, Tris buffer pH 7.4, 22° C.; substrate Boc-Asp(OBzl)-Pro-Arg-AMC; in some cases means. The method, then: To determine the thrombin inhibition of the substances listed above, a biochemical test system is constructed in which the conversion of a thrombin substrate is used for determining the enzymatic activity of human thrombin. Here, thrombin cleaves aminomethylcoumarin, which is measured fluorescently, from the peptic substrate. The determinations are carried out in microtitre plates.
Substances to be tested are dissolved in various concentrations in dimethyl sulphoxide and incubated for 15 min with human thrombin (0.06 nmol/l dissolved in 50 mmol/l of Tris buffer [C,C,C-tris(hydroxymethyl)aminomethane], 100 mmol/l of sodium chloride, 0.1% BSA [bovine serum albumin], pH 7.4) at 22° C. The substrate (5 μmol/l Boc-Asp(OBzl)-Pro-Arg-AMC from Bachem) is then added. After 30 min of incubation, the sample is excited at a wavelength of 360 nm and the emission is measured at 460 nm. The measured emissions of the test batches with test substance are compared to the control batches without test substance (only dimethyl sulphoxide instead of test substance in dimethyl sulphoxide) and the IC50 values are calculated from the concentration/activity relationships.

For assay [2], the target named is T1, thrombin. The assay is described as follows: Thrombin-inhibitory activity in plasma samples (ecarin-activated). The format is biochemical. Particulars: citrate plasma, prothrombinase activated by ecarin, fluorogenic thrombin substrate; in some cases means; read-out: IC50 [nM] thrombin inhibition in plasma samples. The procedure: To determine the inhibition of thrombin in plasma samples, plasma […] is activated by ecarin. Thrombin activity and/or its inhibition by potential inhibitors is/are then measured fluorenscently by addition of a substrate.
The substances to be tested are dissolved in various concentrations in dimethyl sulphoxide and diluted with water. In white 96-well flat-bottomed plates, 20 μl of substance dilution are mixed with 20 μl of ecarin solution (ecarin reagent, from Sigma E-0504, final concentration 20 mU per reaction) in Ca buffer (200 mM Hepes+560 mM sodium chloride+10 mM calcium chloride+0.4% PEG) or with 20 μl of Ca buffer (as unstimulated control). Furthermore, 20 μl of fluorogenic thrombin substrate (from Bachem I-1120, final concentration 50 μmol/l) and 20 μl of citrate plasma (from Octapharma) are added, and the mixture is homogenized well. The plate is measured in a SpectraFluorplus Reader using a 360 nm excitation filter and a 465 nm emission filter every minute over 20 minutes.

Assay [3] deals with plasma (prothrombin time). The assay is described as follows: Anticoagulatory activity: prothrombin time (PT) in plasma. Particulars: 37° C., 3 minutes incubation, plasma species not given, in some cases means, read-out: IC50 [μM] (concentration of test substance which effects a doubling of the prothrombin time). The method, then:
The anticoagulatory activity of the test substances is determined in vitro in human plasma, rabbit plasma and rat plasma. To this end, blood is drawn off in a mixing ratio of sodium citrate/blood of 1:9 using a 0.11 molar sodium citrate solution as receiver. Immediately after the blood has been drawn off, it is mixed thoroughly and centrifuged at about 4000 g for 15 minutes. The supernatant is pipetted off.
The prothrombin time (PT, synonyms: thromboplastin time, quick test) is determined in the presence of varying concentrations of test substance or the corresponding solvent using a commercial test kit (Neoplastin® from Boehringer Mannheim or Hemoliance® RecombiPlastin from Instrumentation Laboratory). The test compounds are incubated with the plasma at 37° C. for 3 minutes. Coagulation is then started by addition of thromboplastin, and the time when coagulation occurs is determined. The concentration of test substance which effects a doubling of the prothrombin time is determined Representative activity data from this test are given in Table 3 below (in some cases as means of individual determinations): […]

SMILES strings stand for the structures.

On to `COc1cc(C(=O)N2CCC(O)C(C)C2)cc2nc(NC(CF)c3cccc(Cl)c3)oc12` (single isomer, unassigned) [Example 2, (2-{[1-(3-Chlorophenyl)-2-fluoroethyl]amino}-7-methoxy-1,3-benzoxazol-5-yl)(4-hydroxy-3-methylpiperidin-1-yl)methanone], for which the IC50 against thrombin [1] and on thrombin [2] was 31 nM throughout.

As for `COc1cc(C(=O)N2CCC(O)C(C)C2)cc2nc(NC(CF)c3cccc(Cl)c3)oc12` (single isomer, unassigned) [Example 3, (2-{[1-(3-Chlorophenyl)-2-fluoroethyl]amino}-7-methoxy-1,3-benzoxazol-5-yl)(4-hydroxy-3-methylpiperidin-1-yl)methanone], the IC50 against thrombin [1] was found to be 2.4 nM; at thrombin [2], 11.6 nM; in assay [3] it was 1.8 µM.

Regarding `COc1cc(C(=O)N2CC(C)(C)OCC2CO)cc2nc(NC(CF)c3cccc(Cl)c3)oc12` (single isomer, unassigned) [Example 5, (2-{[1-(3-Chlorophenyl)-2-fluoroethyl]amino}-7-methoxy-1,3-benzoxazol-5-yl)[5-(hydroxymethyl)-2,2-dimethylmorpholin-4-yl]methanone], the IC50 against thrombin [1] was 1.1 nM; on thrombin [2] it was 4.8 nM.

Regarding `COc1cc(C(=O)N2CC(C)(C)OCC2CO)cc2nc(NC(CF)c3cccc(Cl)c3)oc12` (single isomer, unassigned) [Example 6, (2-{[1-(3-Chlorophenyl)-2-fluoroethyl]amino}-7-methoxy-1,3-benzoxazol-5-yl)[5-(hydroxymethyl)-2,2-dimethylmorpholin-4-yl]methanone], the values for the IC50 at thrombin [1] and at thrombin [2] were 9.7 nM and 16.5 nM, respectively.

As for `COc1cc(C(=O)N2CC(C)OC[C@H]2C)cc2nc(NC(CF)c3cccc(Cl)c3)oc12` (single isomer, unassigned) [Example 7], the results for the IC50 (at thrombin [1]; on thrombin [2]; in assay [3]) were 5.3 nM, 11.4 nM and 1.9 µM, respectively.

Turning to `COc1cc(C(=O)N2CC(C)OC[C@H]2C)cc2nc(NC(CF)c3cccc(Cl)c3)oc12` (single isomer, unassigned) [Example 8], the IC50 against thrombin [1] came to 11 nM; on thrombin [2], 25.3 nM.

As for `COc1cc(C(=O)N2CC(C)(CCO)OC[C@H]2C)cc2nc(NC(CF)c3cccc(Cl)c3)oc12` (single isomer, unassigned) [Example 10], the IC50 at thrombin [1] was 130 nM; at thrombin [2] it was 1400 nM.

For the compound `COc1cc(C(=O)N2CC3CCN3C(=O)C2C)cc2nc(NC(CF)c3cccc(Cl)c3)oc12` (single isomer, unassigned) [Example 23, 4-[(2-{[1-(3-Chlorophenyl)-2-fluoroethyl]amino}-7-methoxy-1,3-benzoxazol-5-yl)carbonyl]-3-methyl-1,4-diazabicyclo[4.2.0]octan-2-one], the IC50 against thrombin [1] turned out to be 1.7 nM; at thrombin [2] it was 4.7 nM.

With `COc1cc(C(=O)N2CC(C)OC[C@@H]2CC(=O)O)cc2nc(NC(CF)c3cccc(Cl)c3)oc12` (single isomer, unassigned) [Example 24], on thrombin [2], the IC50 was found to be 4.5 nM.

Take `CCO[C@@H]1CC(CO)N(C(=O)c2cc(OC)c3oc(NC(CF)c4cccc(Cl)c4)nc3c2)C1` (single isomer, unassigned) [Example 28]: the IC50 against thrombin [1] worked out at 2.3 nM; at thrombin [2] it was 56 nM.

As to `CCO[C@@H]1CC(CCO)N(C(=O)c2cc(OC)c3oc(NC(CF)c4cccc(Cl)c4)nc3c2)C1` (single isomer, unassigned) [Example 30], the IC50 amounted to 5.3 nM against thrombin [1] and 46 nM on thrombin [2].

As to `CCO[C@@H]1CC(CCO)N(C(=O)c2cc(OC)c3oc(NC(CF)c4cccc(Cl)c4)nc3c2)C1` (single isomer, unassigned) [Example 31], the IC50 against thrombin [1] came to 0.54 nM; at thrombin [2], 5 nM.

For the compound `COc1cc(C(=O)N2CC3(CC3)NC(=O)C2C)cc2nc(NC(CF)c3cccc(Cl)c3)oc12` (single isomer, unassigned) [Example 34, 7-[(2-{[1-(3-Chlorophenyl)-2-fluoroethyl]amino}-7-methoxy-1,3-benzoxazol-5-yl)carbonyl]-6-methyl-4,7-diazaspiro[2.5]octan-5-one], the IC50 at thrombin [1] was found to be 20 nM; on thrombin [2], 170 nM.

For the compound `COc1cc(C(=O)N2CCC(O)C(C)C2)cc2nc(NC(CF)c3cccc(Cl)c3)oc12` (stereo not drawn) [Example 1, (2-{[1-(3-Chlorophenyl)-2-fluoroethyl]amino}-7-methoxy-1,3-benzoxazol-5-yl)(4-hydroxy-3-methylpiperidin-1-yl)methanone], the IC50 was 3.2 nM on thrombin [1] and 21 nM on thrombin [2].

`COc1cc(C(=O)N2CC(C)(C)OCC2CO)cc2nc(NC(CF)c3cccc(Cl)c3)oc12` (stereo not drawn) [Example 4, (2-{[1-(3-Chlorophenyl)-2-fluoroethyl]amino}-7-methoxy-1,3-benzoxazol-5-yl)[5-(hydroxymethyl)-2,2-dimethylmorpholin-4-yl]methanone]: the IC50 was 1.7 nM against thrombin [1] and 9.8 nM at thrombin [2].

For `COc1cc(C(=O)N2CC(C)(CCO)OC[C@H]2C)cc2nc(NC(CF)c3cccc(Cl)c3)oc12` (stereo partly drawn) [Example 9, (2-{[1-(3-Chlorophenyl)-2-fluoroethyl]amino}-7-methoxy-1,3-benzoxazol-5-yl)[(5R)-2-(2-hydroxyethyl)-2,5-dimethylmorpholin-4-yl]methanone], the IC50 was found to be 0.2 nM on thrombin [1] and 14.3 nM at thrombin [2].

In the case of `COc1cc(C(=O)N2CC(C)OCC2CCO)cc2nc(NC(CF)c3cccc(Cl)c3)oc12` (stereo not drawn) [Example 13, (2-{[1-(3-Chlorophenyl)-2-fluoroethyl]amino}-7-methoxy-1,3-benzoxazol-5-yl)[5-(2-hydroxyethyl)-2-methylmorpholin-4-yl]methanone], in assay [3], the IC50 was 1.4 µM.

On to `COc1cc(C(=O)N2CC(C)OC[C@]23C[C@H](O)C3)cc2nc(NC(CF)c3cccc(Cl)c3)oc12` (stereo partly drawn) [Example 22, (2-{[1-(3-Chlorophenyl)-2-fluoroethyl]amino}-7-methoxy-1,3-benzoxazol-5-yl)(cis-2-hydroxy-7-methyl-8-oxa-5-azaspiro[3.5]non-5-yl)methanone], for which the IC50 at thrombin [1] came to 1.6 nM; at thrombin [2], 3.8 nM.

Consider `CCO[C@@H]1CC(CO)N(C(=O)c2cc(OC)c3oc(NC(CF)c4cccc(Cl)c4)nc3c2)C1` (stereo partly drawn) [Example 26, (2-{[1-(3-Chlorophenyl)-2-fluoroethyl]amino}-7-methoxy-1,3-benzoxazol-5-yl)[(4R)-4-ethoxy-2-(hydroxymethyl)pyrrolidin-1-yl]methanone], for which the IC50 on thrombin [1] worked out at 0.19 nM; at thrombin [2] it was 2 nM.

On to `CCO[C@@H]1CC(CCO)N(C(=O)c2cc(OC)c3oc(NC(CF)c4cccc(Cl)c4)nc3c2)C1` (stereo partly drawn) [Example 29, (2-{[1-(3-Chlorophenyl)-2-fluoroethyl]amino}-7-methoxy-1,3-benzoxazol-5-yl)[(4R)-4-ethoxy-2-(2-hydroxyethyl)pyrrolidin-1-yl]methanone], for which the IC50 against thrombin [1] was 1.1 nM; on thrombin [2] it was 15 nM.

For the compound `COc1cc(C(=O)N2CC3(CC3)NC(=O)C2C)cc2nc(NC(CF)c3cccc(Cl)c3)oc12` (stereo not drawn) [Example 32, 7-[(2-{[1-(3-Chlorophenyl)-2-fluoroethyl]amino}-7-methoxy-1,3-benzoxazol-5-yl)carbonyl]-6-methyl-4,7-diazaspiro[2.5]octan-5-one], the IC50 turned out to be 0.7 nM at thrombin [1] and 7.3 nM on thrombin [2].
